In US7241785B2, “Five-membered heterocyclic alkanoic acid derivative” (Takeda Pharmaceutical Company Limited, priority 2001, dated 2007):

Experiments:
KKA^y mice [1] = assay: Hypoglycemic and hypolipidemic (hypotriglyceridemic) actions in mice; format: in vivo; details: Mus musculus, po, 96 h, 0.01% in powdery diet, four days
Experimental: Hypoglycemic and Hypolipidemic (Hypotriglyceridemic) Actions in Mice
Test compounds were mixed in a powdery diet (CE-2, Japan Clea) at the concentration of 0.01%, and freely given to KKA^y mice (11 to 12 weeks old, 5 mice per group), a model of type 2 diabetes mellitus, for four days. During this period, water was given freely. Blood was sampled from orbital venous plexus, and glucose and triglyceride levels in plasma separated from the blood were determined enzymatically using L type Wako Glu2 (Wako Pure Chemical Industries, Ltd.) or L type Wako TG.H (Wako Pure Chemical Industries, Ltd.), respectively.
In the Table, “hypoglycemic action (%)” represents a percent reduction (%) of the blood glucose level in the treatment group when the blood glucose level in the non-treatment group is taken as 100%. In addition, “hypolipidemic action (%)” represents a percent reduction (%) of the blood triglyceride level in the treatment group when the blood triglyceride level in the non-treatment group is taken as 100%.

KKA^y mice [2] = assay: Total cholesterol lowering action and plasma anti-arteriosclerosis index-enhancing action in mice; format: in vivo; details: Mus musculus, po, 96 h, 0.01% in powdery diet, four days
Experimental: Total Cholesterol Lowering Action and Plasma Anti-Arteriosclerosis Index-Enhancing Action in Mice
Test compounds were mixed in a powdery diet (CE-2, Japan Clea concentration of 0.01%, and freely given to KKA^y mice (11 to 12 weeks old, 5 mice per group), a model of type 2 diabetes mellitus, for four days. During this period, water was given freely. Blood was sampled from orbital venous plexus, and components in plasma separated from the blood were determined. Total cholesterol levels were determined using L type Wako Cholesterol (Wako Pure Chemical Industries, Ltd.). Precipitation reagent for HDL cholesterol was added to a part of the plasma to precipitate non-HDL lipoprotein, and cholesterol (HDL cholesterol) in the resulting supernatant was determined. The plasma anti-arteriosclerosis index [(HDL cholesterol/total cholesterol)×100] was calculated using these cholesterol levels.
In the Table, “total cholesterol lowering action (%)” represents a percent reduction (%) of the total cholesterol level in the treatment group when the total cholesterol level in the non-treatment group is taken as 100%. In addition, “plasma anti-arteriosclerosis index-enhancing action (%)” represents a percent increase (%) of the plasma anti-arteriosclerosis index in the treatment group when the plasma anti-arteriosclerosis index in the non-treatment group is taken as 100%.

PPARδ-RXRα heterodimer [3] = target: T1, PPARδ-RXRα heterodimer (Homo sapiens, UniProt Q03181); assay: PPARδ-RXRα heterodimer ligand activity (luciferase reporter, PPARδ:RXRα:4ERPP/CHO-K1 cells); format: cell-based; set-up: expressed in transfected cells; details: concentration for 50% of maximum fold induction of luciferase, 48 hrs
T1 sequence (Q03181 1-441): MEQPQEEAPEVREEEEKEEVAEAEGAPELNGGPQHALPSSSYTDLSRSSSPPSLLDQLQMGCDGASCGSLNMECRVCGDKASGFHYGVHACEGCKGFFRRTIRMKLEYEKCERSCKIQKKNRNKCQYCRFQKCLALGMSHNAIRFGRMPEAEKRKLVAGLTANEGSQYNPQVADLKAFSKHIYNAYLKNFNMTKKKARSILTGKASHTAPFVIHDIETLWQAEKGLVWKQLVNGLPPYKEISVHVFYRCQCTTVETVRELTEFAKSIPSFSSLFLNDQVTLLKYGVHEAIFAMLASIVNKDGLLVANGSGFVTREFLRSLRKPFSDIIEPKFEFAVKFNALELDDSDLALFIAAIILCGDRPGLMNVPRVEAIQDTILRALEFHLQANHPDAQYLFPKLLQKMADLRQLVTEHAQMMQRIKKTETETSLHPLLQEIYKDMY
T1 sequence (P19793 1-462 partner): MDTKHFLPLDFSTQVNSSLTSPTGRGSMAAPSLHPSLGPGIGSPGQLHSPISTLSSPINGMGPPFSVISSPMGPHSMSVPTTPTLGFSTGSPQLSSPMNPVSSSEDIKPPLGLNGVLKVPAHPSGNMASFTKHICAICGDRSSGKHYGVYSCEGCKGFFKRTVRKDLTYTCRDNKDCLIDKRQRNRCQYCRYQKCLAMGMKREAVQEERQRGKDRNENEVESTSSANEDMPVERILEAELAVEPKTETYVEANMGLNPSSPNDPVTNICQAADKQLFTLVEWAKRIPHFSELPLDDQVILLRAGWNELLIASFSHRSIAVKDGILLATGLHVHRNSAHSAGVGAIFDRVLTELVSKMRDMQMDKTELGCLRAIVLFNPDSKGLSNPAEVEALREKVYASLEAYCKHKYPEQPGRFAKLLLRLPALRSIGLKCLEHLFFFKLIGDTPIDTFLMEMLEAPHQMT
Experimental: (§1) PPARδ-RXRα Heterodimer Ligand Activity
PPARδ:RXRα:4ERPP/CHO-K1 cells obtained in Reference Example 5a were cultured in HAM F12 medium (produced by NISSUI SEIYAKU) containing 10% fetal bovine serum (produced by Life Technologies, Inc., USA) and then seeded in a 96-well white plate (produced by Corning Costar Corporation, USA) at the density of 2×10^4 cells/well, and cultured in a CO2 gas incubator at 37° C. overnight.
After washing the 96 well white plate with PBS (Phosphate-buffered saline), 90 μl of HAM F12 medium containing 0.1% fatty acid-free bovine serum albumin (BSA) and 10 μl of test compound were added, and the cells were cultured in a CO2 gas incubator at 37° C. for 48 hrs. After removing the medium, 40 μl of PicaGene 7.5 (produced by Wako Pure Chemical Industries, Ltd.) was added. After stirring, the luciferase activity was determined using Lumistar (produced by BMG Labtechnologies GmbH, Germany).
The fold induction was calculated from the luciferase activity of each test compound when the luciferase activity in the non-treatment group is taken as 1. The values of the test compound concentration and the fold induction were analyzed using PRISM 2.01 (produced by GraphPad Software Inc. USA) to calculate the EC50 values, the effective concentration of a test compound for 50% of the maximum fold induction. […]

PPARδ-RXRα heterodimer [4] = target: T1, PPARδ-RXRα heterodimer; assay: PPARδ-RXRα heterodimer ligand activity (luciferase reporter, transfected COS-1 cells); format: cell-based; set-up: expressed in transfected cells; host or cells: COS-1 (transient, lipofectamine); details: concentration for 50% of maximum fold induction of luciferase, 48 hrs
Experimental: as §1
The COS-1 cells obtained in Reference Example 9a were recovered, suspended in DMEM medium containing 0.1% fatty acid-free bovine serum albumin (BSA)(manufactured by Wako Pure Chemical Industries, Ltd.) (Nikken Biomedical Laboratory) and seeded in each well of a 96-well white plate (manufactured by Corning Costar Corporation, USA) at the density of 2×10^4 cells/well ([…]). Then, the test Compound ([…]) was added and the cells were cultured at 37° C., 5% CO2 for 48 hrs. The medium was removed from the 96-well white plate and PicaGine LT7.5 ([…], Wako Pure Chemical Industries) was added. After stirring, luciferase activity was measured using 1420 ARVO Multilabel Counter (Wallac)).
The fold induction was calculated from the luciferase activity of the test compound when the luciferase activity of the non-treatment group is taken as 1. The values of the test compound concentration and the fold induction were analyzed using PRISM 2.01 (produced by GraphPad Software Inc. USA) to calculate the EC50 values, the effective concentration of a test compound for 50% of the maximum fold induction.
Introduction of Plasmid and Reporter Plasmid for Expression of Human PPARδ, RXRα into COS-1 Cell […]

## Cc1oc(-c2ccccc2)nc1COc1ccc(Sc2nc(-c3ccccc3)c(CCC(=O)O)s2)cc1 [Example 12, 3-[2-[4-(5-methyl-2-phenyl-4-oxazolylmethoxy)phenylthio]-4-phenyl-5-thiazolyl]propionic acid]
other
  melting point: 121 to 122 °C
KKA^y mice [1]; percent reduction of blood glucose level vs non-treatment group (100%), read-out: Hypoglycemic action (%)
  inhibition in vivo at 0.01 % in diet: 52%
KKA^y mice [1]; percent reduction of blood triglyceride level vs non-treatment group (100%), read-out: Hypolipidemic action (%)
  inhibition in vivo at 0.01 % in diet: 56%
KKA^y mice [2]; percent increase of index [(HDL cholesterol/total cholesterol)×100] vs non-treatment group (100%)
  change in vivo at 0.01 % in diet: 15%
KKA^y mice [2]; percent reduction of total cholesterol level vs non-treatment group (100%)
  inhibition in vivo at 0.01 % in diet: 22%
PPARδ-RXRα heterodimer [3]
  EC50: 670 nM

## Cc1nc(SCc2ccc(OCc3nc(-c4ccccc4)oc3C)cc2)sc1CC(=O)O [Example 58, [4-methyl-2-[4-(5-methyl-2-phenyl-4-oxazolylmethoxy)benzylthio]thiazol-5-yl]acetic acid]
PPARδ-RXRα heterodimer [4]
  EC50: 680 nM

## Cc1nc(SCc2cccc(OCc3nc(-c4ccccc4)oc3C)c2)sc1CC(=O)O [Example 60, [4-methyl-2-[3-(5-methyl-2-phenyl-4-oxazolylmethoxy)benzylthio]thiazol-5-yl]acetic acid]
PPARδ-RXRα heterodimer [4]
  EC50: 260 nM
